Values after ≈ are worked out from the molar mass of the structure shown.
Key:
[1] = physchem; details: octan-1-ol/water
[2] = physchem
[3] = in vitro; details: Beagle, dog, plasma
[4] = in vitro; details: human
[5] = in vitro; details: human, plasma
[6] = in vitro; details: hepatocytes
[7] = in vitro; details: SD, HW or BN, rat, plasma
[8] = in vitro; details: human, hepatocytes
[9] = physchem; details: pH 7.4 buffer

Row | logD ([1]; pH 7.4, LogD7.4) | pKa [2] | fraction unbound at 5 h [3] | microsomal CLint ([4]; microsomes) [µL/min/mg] | fraction unbound at 5 h ([5]; PPB) | hepatocyte CLint [6] [µL/min/1e6 cells] | fraction unbound at 5 h [7] | hepatocyte CLint [8] [µL/min/1e6 cells] | microsomal CLint ([4]; liver microsomes) [µL/min/mg] | solubility thermodynamic [9] [µM] | SMILES | logD ([1]; pH 7.4) | fraction unbound at 5 h [5]
1 | 1.73 | 7.1 | 0.0532 |  |  |  |  |  |  |  | COc1ccnc(NC2CCN(C(=O)c3ccc(C#N)cc3)CC2)c1 |  | 
2 | 2.21 |  | 0.0274 | 8.28 | 0.016 | 61 |  |  |  |  | C[C@H](CO)Nc1nc(SCc2ccco2)nc2[nH]c(=O)sc12 |  | 
3 | 0.33 |  | 0.0343 |  | 0.0067 |  | 0.114 | < 3 |  |  | O=C(O)COc1ccc(Cl)cc1CN1CCN(S(=O)(=O)Cc2ccccc2)CC1 |  | 
4 |  |  | 0.0568 |  |  | < 3 | 0.0752 |  | < 3 |  | Cc1c(OC2CCN(CC3CCN([C@@](C)(Cc4ccc(F)cc4)C(=O)O)CC3)CC2)ccc(Cl)c1Cl |  | 
5 |  |  | 0.454 |  |  |  | 0.511 | 15.5 |  |  | CC(C)(N)C(=O)N[C@H](COCc1ccc(F)cc1F)C(=O)N1CCC2=NN(CC(F)(F)F)C(=O)[C@]2(Cc2ccccn2)C1 |  | 
6 | 1.4 |  | 0.212 |  | 0.232 |  | 0.253 | 14.4 |  |  | CC(C)(N)C(=O)N[C@H](COCc1ccccc1)C(=O)N1CCC2(CC1)CN(S(C)(=O)=O)c1ccccc12 [IBUTAMOREN] |  | 
7 | 4.07 |  | 0.0051 |  | 0.0053 | 110 | 0.0056 |  |  | 2.8 (≈ 0.785 µg/mL) | CC(C)Oc1ccc2c(=O)c(-c3ccccc3)coc2c1 [IPRIFLAVONE] |  | 
8 | 0.05 |  | 0.0358 |  | 0.0139 | < 3 | 0.035 | < 3 | < 3 |  | N#Cc1cccc(-c2cc(C(F)(F)F)ccc2OCC(=O)O)c1 |  | 
9 |  |  | 0.24 |  |  |  |  | 33.9 |  |  | CC(C)(C)NC(=O)NCCN1CCN(CC(=O)NC23CC4CC(CC(C4)C2)C3)CC1 |  | 
10 | 2.21 |  | 0.0175 |  | 0.0077 |  | 0.0038 | 3.98 | < 3 |  | CCCc1nc2c(C)cc(-c3nc4ccccc4n3C)cc2n1Cc1ccc(-c2ccccc2C(=O)O)cc1 |  | 
11 |  | 9.45 | 0.788 |  |  |  | 0.711 |  |  |  | CCCC(=O)Nc1ccc(OCC(O)CNC(C)C)c(C(C)=O)c1 (stereo unspecified) [ACEBUTOLOL] |  | 
12 |  |  | 0.0108 |  | 0.009 | 75 | 0.0077 |  | 85 |  | CCOC(=O)C1=C(C)NC(C)=C(C(=O)OC)C1c1cccc([N+](=O)[O-])c1 (stereo unspecified) [NITRENDIPINE] |  | 
13 | 0.91 |  | 0.0366 |  | 0.0274 | 9.12 | 0.0175 |  |  |  | Cc1cn([C@H]2CCCN([C@H](CC(C)C)c3ccc(C(=O)O)c(Oc4cccc(Cl)c4)c3)C2)c(=O)[nH]c1=O |  | 
14 | -1.02 |  | 0.0477 | 4 | 0.0028 | 7.33 | 0.0287 |  |  |  | Cc1ccc(C(=O)c2ccc(CC(=O)O)n2C)cc1 [TOLMETIN] |  | 
15 | -0.76 |  | 0.608 | < 3 |  | 27 | 0.349 | < 3 |  |  | CC[C@H](C)C(=O)O[C@H]1C[C@H](O)C=C2C=C[C@H](C)[C@H](CC[C@@H](O)C[C@@H](O)CC(=O)O)[C@H]21 [PRAVASTATIN] |  | 
16 |  |  | 0.183 | 26 |  | 12 | 0.151 |  |  |  | CCOc1cc2ncc(C(N)=O)c(Nc3ccc(C)cc3F)c2cc1N1CCN(C)CC1 |  | 
17 | 2.8 |  | 0.176 |  | 0.0447 | > 150 | 0.0988 | 16.6 | 132 |  | CCCc1nn(C)c2c(=O)[nH]c(-c3cc(S(=O)(=O)N4CCN(C)CC4)ccc3OCC)nc12 |  | 
18 |  |  | 0.0784 |  | 0.0928 |  | 0.101 | 3.31 |  |  | CC(C)(C)NC(=O)NCCN1CC(NC(=O)c2cc(Cl)cc(Cl)c2)C1 |  | 

Row | logD ([1]; pH 7.4, LogD7.4) | pKa [2] | fraction unbound at 5 h [3] | microsomal CLint ([4]; microsomes) [µL/min/mg] | fraction unbound at 5 h ([5]; PPB) | hepatocyte CLint [6] [µL/min/1e6 cells] | fraction unbound at 5 h [7] | hepatocyte CLint [8] [µL/min/1e6 cells] | microsomal CLint ([4]; liver microsomes) [µL/min/mg] | solubility thermodynamic [9] [µM] | SMILES | logD ([1]; pH 7.4) | fraction unbound at 5 h [5]
19 | -0.3 |  | 0.101 |  | 0.0156 | 3.39 | 0.0293 |  |  |  | Cc1cn([C@H]2CCCN([C@H](C)c3ccc(C(=O)O)c(Oc4cccc(Cl)c4)c3)C2)c(=O)[nH]c1=O |  | 
20 |  |  | 0.0854 |  | 0.0477 |  | 0.0191 | 19.1 |  |  | COc1ccc(CCN2C(=O)N(NS(C)(=O)=O)C[C@@H]2c2ccc(OC)cc2)cc1 |  | 
21 | 1.75 |  | 0.535 | 20.9 | 0.443 | > 150 |  |  |  |  | C#CC[C@@H](C(=O)N[C@H](/C=C/C(=O)OCC)C[C@@H]1CCNC1=O)n1cccc(NC(=O)c2cc(C)on2)c1=O [IMOCITRELVIR] |  | 
22 | 0.99 |  | 0.0768 |  | 0.0101 | < 3 | 0.089 | < 3 |  |  | O=C(O)COc1ccc(Cl)cc1CN1CCN(S(=O)(=O)c2ccc(F)cc2)CC1 |  | 
23 |  |  | 0.0146 | 17.8 |  | 9.01 |  | 10.5 |  | 891 (≈ 382 µg/mL) | CCCCC1=NC2(CCCC2)C(=O)N1Cc1ccc(-c2ccccc2-c2nnn[nH]2)cc1 [IRBESARTAN] |  | 
24 |  |  | 0.089 |  | 0.0633 |  | 0.0568 | 21.9 |  |  | COc1ccc(CCN2C(=O)N(NS(C)(=O)=O)C[C@H]2c2ccc(OC)cc2)cc1 |  | 
25 |  |  | 0.0039 |  | 0.0015 | 6 |  | 6 | < 3 | 851 (≈ 519 µg/mL) | CC(C)(C)NC(=O)c1ccc(Oc2cc(F)c(CC(=O)O)cc2Cl)c(NS(=O)(=O)c2ccc(C3CC3)cc2Cl)c1 [VIDUPIPRANT] |  | 
26 |  |  | 0.529 |  | 0.208 | < 3 | 0.166 |  | 7 |  | Cc1ccc(S(=O)(=O)Nc2c(C(=O)N[C@@H](C)C(C)(C)C)c(C)nn2C2CCOCC2)cc1 |  | 
27 | 3 |  | 0.0171 |  |  | 28 |  | 30.1 | 3 | 8.1 (≈ 2.97 µg/mL) | C[C@H](CO)Nc1[nH]c(SCc2ccccc2F)nc2nc(=O)sc1-2 |  | 
28 |  |  | 0.0116 |  | 0.0191 | 107 | 0.0153 | > 150 |  |  | CCC(=O)O[C@]1(C(=O)SCF)[C@H](C)C[C@H]2[C@@H]3C[C@H](F)C4=CC(=O)C=C[C@]4(C)[C@@]3(F)[C@@H](O)C[C@@]21C [FLUTICASONE PROPIONATE] |  | 
29 | 1.46 |  | 0.0025 |  | 0.013 | 35 | 0.0057 | 9.5 | 137 | 204 (≈ 106 µg/mL) | CCN(C(=O)c1cnn(-c2ccccc2)c1NS(=O)(=O)c1ccc(-c2cnco2)cc1)C1CCCCC1 |  | 
30 | 1.09 |  | 0.0268 |  | 0.0287 | 49 | 0.0149 |  |  |  | Cc1cn([C@H]2CCCN([C@H](CC(C)(C)C)c3ccc(C(=O)O)c(Oc4cccc(Br)c4)c3)C2)c(=O)[nH]c1=O |  | 
31 | -0.04 |  | 0.0084 |  | 0.0061 |  |  | 12.3 | < 3 |  | COc1cc(-n2cnc3cc(-c4ccc(Cl)cc4)sc3c2=O)ccc1OC[C@H](OP(=O)(O)O)C1CC1 [BMS-830216] |  | 
32 | 1.07 | 3.4 | 0.656 |  | 0.489 |  |  |  | 4 |  | Cc1n[nH]c(C)c1Cc1sc2c(c1C(=O)N1C[C@H](O)CO1)c(=O)n(C)c(=O)n2CC(C)C |  | 
33 | -0.49 | 9.5 | 0.535 |  | 0.557 |  |  |  |  |  | N#Cc1ccc(C(F)(F)F)nc1O[C@H](CCN)c1ccno1 |  | 
34 | 2.86 |  | 0.0219 |  | 0.0029 | < 3 |  | 19.4 | 4 | 53.7 (≈ 18.7 µg/mL) | C[C@H](CO)Nc1nc(SCc2ccccc2)nc2[nH]c(=O)sc12 |  | 
35 |  |  | 0.0053 |  | 0.0016 |  |  | 10 |  |  | CC[C@H](CO)Nc1nc(SCc2ccccc2)nc2[nH]c(=O)sc12 |  | 
36 | 1.83 | 9 | 0.0768 | 28 |  |  |  |  |  |  | O=C(NCC12CC3CC(CC(C3)C1)C2)c1cc(OC2CCNCC2)ccc1Cl |  | 

Row | SMILES | logD ([1]; pH 7.4, LogD7.4) | pKa [2] | fraction unbound at 5 h [3] | microsomal CLint ([4]; microsomes) [µL/min/mg] | fraction unbound at 5 h ([5]; PPB) | hepatocyte CLint [6] [µL/min/1e6 cells] | fraction unbound at 5 h [7] | hepatocyte CLint [8] [µL/min/1e6 cells] | microsomal CLint ([4]; liver microsomes) [µL/min/mg] | solubility thermodynamic [9] [µM] | logD ([1]; pH 7.4) | fraction unbound at 5 h [5]
37 | CCN(CC)CCN1C(=O)[C@@](O)(c2ccccc2Cl)c2c1cc(C(N)=O)cc2C(F)(F)F |  |  | 0.19 | 93.3 |  | 56.2 | 0.212 | 11.5 |  |  | 2.4 | 0.289
38 | O=C(NCC12CC3CC(CC(C3)C1)C2)c1cc(N2CCNCC2)ncc1Cl |  | 8.5 | 0.0736 |  |  |  |  |  | 10 |  |  | 
39 | CCN(CC)CCN1C(=O)C(O)(c2ccccc2Cl)c2c1cc(C(N)=O)cc2C(F)(F)F (stereo unspecified) |  |  | 0.212 |  |  |  |  | 15.1 |  |  |  | 
40 | C[C@H]1CN(Cc2cc(Cl)ccc2OCC(=O)O)CCN1C(=O)Cc1ccc(Cl)cc1 |  |  | 0.0262 |  |  | < 3 | 0.0383 | < 3 | < 3 |  |  | 0.0187

Source: ChEMBL document CHEMBL3301361, “Experimental in vitro DMPK and physicochemical data on a set of publicly disclosed compounds”
